Test results from the supplement of paper PMC10307832.

Assays:
Assay in all cases: relative viability (nuclei count vs DMSO), 5 days (fraction); higher = more cells survive
[1] = system: NCI-H2009
Outline: (§1)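 Lung cancer cell lines were seeded in 1536-well plates and dosed by pin tool the next day, with either a single drug or a fixed anchor-drug dose combined with five library-drug doses (not always all listed) spaced in √10 steps. Five days later, one step fixed the cells and stained their nuclei (final 0.05% Triton X-100, 1% formaldehyde, 1 ug/ml Hoechst), and nuclei were counted on 4× images. Relative viability is the nuclei count in treated wells divided by the count in vehicle wells, and each value is the median of duplicate plates.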

[2] = system: NCI-H1993
Outline: as §1

[3] = system: SK-MES-1
Outline: as §1

[4] = system: NCI-H2170
Outline: as §1

[5] = system: NCI-H1355
Outline: as §1

[6] = system: NCI-H647
Outline: as §1

[7] = system: NCI-H2228
Outline: as §1

[8] = system: NCI-H1793
Outline: as §1

[9] = system: COR-L23
Outline: as §1

[10] = system: COR-L 105
Outline: as §1

[11] = system: NCI-H1755
Outline: as §1

[12] = system: EKVX
Outline: as §1

[13] = system: UMC-11
Outline: as §1

[14] = system: NCI-H322M
Outline: as §1

[15] = system: NCI-H2347
Outline: as §1

[16] = system: HOP-62
Outline: as §1

[17] = system: NCI-H838
Outline: as §1

[18] = system: PC-14
Outline: as §1

[19] = system: NCI-H358
Outline: as §1

[20] = system: HARA
Outline: as §1

[21] = system: NCI-H1734
Outline: as §1

[22] = system: NCI-H1395
Outline: as §1

## C[C@@H]1CN(CC(=O)Nc2ccc3c(c2)Cc2cccc(-c4cc(=O)cc(N5CCOCC5)o4)c2S3)C[C@H](C)O1 + CS(=O)(=O)N1CCN(Cc2cc3nc(-c4cccc5[nH]ncc45)nc(N4CCOCC4)c3s2)CC1 [Pictilisib] (partner 1 µM)
[1]; first compound 0.04 µM
  relative viability: 0.909
[1]; first compound 0.1265 µM
  relative viability: 0.84
[1]; first compound 0.4 µM
  relative viability: 0.816
[1]; first compound 4 µM
  relative viability: 0.588
[2]; first compound 0.04 µM
  relative viability: 0.76
[2]; first compound 0.1265 µM
  relative viability: 0.927
[2]; first compound 0.4 µM
  relative viability: 0.994
[2]; first compound 4 µM
  relative viability: 0.912
[3]; first compound 0.04 µM
  relative viability: 0.381
[3]; first compound 0.1265 µM
  relative viability: 0.377
[3]; first compound 0.4 µM
  relative viability: 0.356
[3]; first compound 4 µM
  relative viability: 0.355
[4]; first compound 0.1265 µM
  relative viability: 0.343
[4]; first compound 0.4 µM
  relative viability: 0.274
[4]; first compound 4 µM
  relative viability: 0.339
[5]; first compound 0.04 µM
  relative viability: 0.229
[5]; first compound 0.1265 µM
  relative viability: 0.43
[5]; first compound 0.4 µM
  relative viability: 0.418
[5]; first compound 4 µM
  relative viability: 0.331
[6]; first compound 0.04 µM
  relative viability: 0.258
[6]; first compound 0.1265 µM
  relative viability: 0.397
[6]; first compound 0.4 µM
  relative viability: 0.204
[6]; first compound 4 µM
  relative viability: 0.393
[7]; first compound 0.04 µM
  relative viability: 0.355
[7]; first compound 0.1265 µM
  relative viability: 0.256
[7]; first compound 0.4 µM
  relative viability: 0.372
[7]; first compound 4 µM
  relative viability: 0.472
[8]; first compound 0.04 µM
  relative viability: 0.374
[8]; first compound 0.1265 µM
  relative viability: 0.297
[8]; first compound 0.4 µM
  relative viability: 0.346
[8]; first compound 4 µM
  relative viability: 0.335
[9]; first compound 0.04 µM
  relative viability: 0.854
[9]; first compound 0.1265 µM
  relative viability: 0.785
[9]; first compound 0.4 µM
  relative viability: 0.745
[9]; first compound 4 µM
  relative viability: 0.755
[10]; first compound 0.04 µM
  relative viability: 0.344
[10]; first compound 0.1265 µM
  relative viability: 0.402
[10]; first compound 0.4 µM
  relative viability: 0.375
[10]; first compound 4 µM
  relative viability: 0.414
[11]; first compound 0.04 µM
  relative viability: 0.381
[11]; first compound 0.1265 µM
  relative viability: 0.386
[11]; first compound 0.4 µM
  relative viability: 0.433
[11]; first compound 4 µM
  relative viability: 0.388
[12]; first compound 0.04 µM
  relative viability: 0.412
[12]; first compound 0.1265 µM
  relative viability: 0.444
[12]; first compound 0.4 µM
  relative viability: 0.414
[12]; first compound 4 µM
  relative viability: 0.428
[13]; first compound 0.04 µM
  relative viability: 0.769
[13]; first compound 0.1265 µM
  relative viability: 0.791
[13]; first compound 0.4 µM
  relative viability: 0.75
[13]; first compound 4 µM
  relative viability: 0.649
[14]; first compound 0.04 µM
  relative viability: 0.365
[14]; first compound 0.1265 µM
  relative viability: 0.506
[14]; first compound 0.4 µM
  relative viability: 0.452
[14]; first compound 4 µM
  relative viability: 0.565
[15]; first compound 0.04 µM
  relative viability: 0.961
[15]; first compound 0.1265 µM
  relative viability: 0.577
[15]; first compound 0.4 µM
  relative viability: 0.747
[15]; first compound 4 µM
  relative viability: 0.313
[16]; first compound 0.04 µM
  relative viability: 0.359
[16]; first compound 0.1265 µM
  relative viability: 0.626
[16]; first compound 0.4 µM
  relative viability: 0.753
[16]; first compound 4 µM
  relative viability: 0.605
[17]; first compound 0.04 µM
  relative viability: 0.472
[17]; first compound 0.1265 µM
  relative viability: 0.402
[17]; first compound 0.4 µM
  relative viability: 0.451
[17]; first compound 4 µM
  relative viability: 0.29
[18]; first compound 0.04 µM
  relative viability: 0.685
[18]; first compound 0.1265 µM
  relative viability: 0.629
[18]; first compound 0.4 µM
  relative viability: 0.687
[18]; first compound 4 µM
  relative viability: 0.588
[19]; first compound 0.04 µM
  relative viability: 0.355
[19]; first compound 0.1265 µM
  relative viability: 0.343
[19]; first compound 0.4 µM
  relative viability: 0.3
[19]; first compound 4 µM
  relative viability: 0.247
[20]; first compound 0.04 µM
  relative viability: 0.383
[20]; first compound 0.1265 µM
  relative viability: 0.37
[20]; first compound 0.4 µM
  relative viability: 0.226
[20]; first compound 4 µM
  relative viability: 0.372
[21]; first compound 0.04 µM
  relative viability: 0.526
[21]; first compound 0.1265 µM
  relative viability: 0.489
[21]; first compound 0.4 µM
  relative viability: 0.468
[21]; first compound 4 µM
  relative viability: 0.487
[22]; first compound 0.04 µM
  relative viability: 0.66
[22]; first compound 0.1265 µM
  relative viability: 0.556
[22]; first compound 0.4 µM
  relative viability: 0.502
[22]; first compound 4 µM
  relative viability: 0.559
